For three compounds, residual activity results are on record in ChEMBL document CHEMBL5649166, “RIP3 induces apoptosis independent of pronecrotic kinase activity” (Mol Cell, 2014).

Molecules are shown by their SMILES.

Test [1] has as its target G protein-coupled receptor kinase 5 (Homo sapiens) (UniProt P34947). Description: Residual activity of human GRK5 using casein as substrate at 1 uM in presence of 32P-ATP by Hotspot assay relative to control.
In test [2] the target is T1, Aurora kinase C (Homo sapiens) (UniProt Q9UQB9).
T1 sequence (whole entry): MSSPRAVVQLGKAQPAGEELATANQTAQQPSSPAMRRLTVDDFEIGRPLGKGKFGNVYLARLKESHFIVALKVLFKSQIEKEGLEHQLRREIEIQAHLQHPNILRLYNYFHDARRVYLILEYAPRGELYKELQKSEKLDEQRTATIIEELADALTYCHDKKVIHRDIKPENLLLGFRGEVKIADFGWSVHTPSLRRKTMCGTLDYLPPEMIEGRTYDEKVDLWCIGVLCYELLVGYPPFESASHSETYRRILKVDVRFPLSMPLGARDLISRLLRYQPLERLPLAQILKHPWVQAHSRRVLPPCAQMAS
Kind of test: Inhibition of human Aurora C using H-LRRASLG as substrate at 1 uM in presence of 32P-ATP by Hotspot assay relative to control; values are per cent of control.

In test [3] the target is MAP kinase-activated protein kinase 2 (Homo sapiens) (UniProt P49137). Kind of test: Inhibition of human MAPKAPK2 using KKLNRTLSVA as substrate at 1 uM in presence of 32P-ATP by Hotspot assay relative to control; values are per cent of control.
Test [4] has as its target Protein kinase C eta type (Homo sapiens) (UniProt P24723). Kind of test: Inhibition of human PKCeta using ERMRPRKRQGSVRRRV as substrate at 1 uM in presence of 32P-ATP by Hotspot assay relative to control; values are per cent of control.
Test [5] addresses Tyrosine-protein kinase SYK (Homo sapiens) (UniProt P43405). Kind of test: Inhibition of human SYK using poly[Glu:Tyr] (4:1) as substrate at 1 uM in presence of 32P-ATP by Hotspot assay relative to control; values are per cent of control.
In test [6] the target is T2, Ephrin type-A receptor 3 (Homo sapiens) (UniProt P29320).
T2 sequence (whole entry): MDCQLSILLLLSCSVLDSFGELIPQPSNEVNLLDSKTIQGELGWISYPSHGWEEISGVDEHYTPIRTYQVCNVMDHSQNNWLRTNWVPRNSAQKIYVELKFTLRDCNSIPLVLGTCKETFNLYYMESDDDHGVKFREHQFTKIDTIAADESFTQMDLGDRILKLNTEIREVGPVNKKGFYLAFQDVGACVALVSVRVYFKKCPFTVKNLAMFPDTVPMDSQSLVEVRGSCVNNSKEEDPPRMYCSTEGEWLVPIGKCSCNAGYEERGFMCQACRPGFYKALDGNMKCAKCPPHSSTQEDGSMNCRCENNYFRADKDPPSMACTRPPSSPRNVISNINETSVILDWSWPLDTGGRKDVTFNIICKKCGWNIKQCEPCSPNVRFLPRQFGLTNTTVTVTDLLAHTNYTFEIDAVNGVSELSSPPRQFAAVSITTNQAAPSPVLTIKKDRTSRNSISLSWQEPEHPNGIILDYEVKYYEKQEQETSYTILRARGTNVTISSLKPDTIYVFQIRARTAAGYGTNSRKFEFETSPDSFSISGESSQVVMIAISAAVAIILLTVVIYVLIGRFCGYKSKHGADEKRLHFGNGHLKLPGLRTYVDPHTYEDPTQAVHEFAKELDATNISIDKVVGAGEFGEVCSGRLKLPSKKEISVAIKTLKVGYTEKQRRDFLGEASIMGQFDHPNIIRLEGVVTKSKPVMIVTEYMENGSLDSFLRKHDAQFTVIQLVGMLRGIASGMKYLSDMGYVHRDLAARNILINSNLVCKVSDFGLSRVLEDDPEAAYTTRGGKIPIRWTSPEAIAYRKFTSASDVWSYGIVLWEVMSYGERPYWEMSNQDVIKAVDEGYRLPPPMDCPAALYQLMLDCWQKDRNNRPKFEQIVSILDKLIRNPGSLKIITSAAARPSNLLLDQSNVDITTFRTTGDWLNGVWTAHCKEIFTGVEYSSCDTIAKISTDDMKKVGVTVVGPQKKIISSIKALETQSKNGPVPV
Kind of test: Inhibition of human EPHA3 using poly[Glu:Tyr] (4:1) as substrate at 1 uM in presence of 32P-ATP by Hotspot assay relative to control; values are per cent of control.

Test [7] has as its target T3, Mitogen-activated protein kinase kinase kinase 2 (Homo sapiens) (UniProt Q9Y2U5).
T3 sequence (whole entry): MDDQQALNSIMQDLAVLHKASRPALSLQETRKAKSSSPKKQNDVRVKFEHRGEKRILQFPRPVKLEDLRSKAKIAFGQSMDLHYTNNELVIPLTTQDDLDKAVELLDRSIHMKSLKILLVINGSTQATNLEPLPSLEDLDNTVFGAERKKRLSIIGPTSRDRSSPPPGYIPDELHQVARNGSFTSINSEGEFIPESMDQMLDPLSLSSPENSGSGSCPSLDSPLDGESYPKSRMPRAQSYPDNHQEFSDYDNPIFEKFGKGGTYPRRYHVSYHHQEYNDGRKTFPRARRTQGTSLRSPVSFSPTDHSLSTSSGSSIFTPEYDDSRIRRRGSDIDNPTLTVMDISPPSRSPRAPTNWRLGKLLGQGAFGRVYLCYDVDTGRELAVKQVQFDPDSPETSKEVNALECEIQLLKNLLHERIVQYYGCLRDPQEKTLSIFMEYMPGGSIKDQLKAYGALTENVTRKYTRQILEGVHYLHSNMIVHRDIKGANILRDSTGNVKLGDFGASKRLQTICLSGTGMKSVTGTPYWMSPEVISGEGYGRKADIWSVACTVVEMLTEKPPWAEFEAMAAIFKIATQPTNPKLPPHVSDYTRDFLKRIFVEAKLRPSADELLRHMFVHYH
Description: Inhibition of human MEKK2 using myelin basic protein as substrate at 1 uM in presence of 32P-ATP by Hotspot assay relative to control; values are per cent of control.

MAP kinase-activated protein kinase 2 (Homo sapiens), sequence (P49137 whole entry, looked up): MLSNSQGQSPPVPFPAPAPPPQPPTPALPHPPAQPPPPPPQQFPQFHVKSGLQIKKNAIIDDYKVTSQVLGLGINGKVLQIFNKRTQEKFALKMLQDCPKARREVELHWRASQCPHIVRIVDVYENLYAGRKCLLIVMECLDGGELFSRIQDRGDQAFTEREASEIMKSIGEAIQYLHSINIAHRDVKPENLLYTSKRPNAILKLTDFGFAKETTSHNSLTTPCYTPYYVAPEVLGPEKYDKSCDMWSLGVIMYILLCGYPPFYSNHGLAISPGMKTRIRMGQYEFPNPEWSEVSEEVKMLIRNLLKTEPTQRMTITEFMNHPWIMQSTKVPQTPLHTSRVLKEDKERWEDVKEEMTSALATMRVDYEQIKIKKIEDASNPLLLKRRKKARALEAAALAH
G protein-coupled receptor kinase 5 (Homo sapiens), sequence (P34947 whole entry, looked up): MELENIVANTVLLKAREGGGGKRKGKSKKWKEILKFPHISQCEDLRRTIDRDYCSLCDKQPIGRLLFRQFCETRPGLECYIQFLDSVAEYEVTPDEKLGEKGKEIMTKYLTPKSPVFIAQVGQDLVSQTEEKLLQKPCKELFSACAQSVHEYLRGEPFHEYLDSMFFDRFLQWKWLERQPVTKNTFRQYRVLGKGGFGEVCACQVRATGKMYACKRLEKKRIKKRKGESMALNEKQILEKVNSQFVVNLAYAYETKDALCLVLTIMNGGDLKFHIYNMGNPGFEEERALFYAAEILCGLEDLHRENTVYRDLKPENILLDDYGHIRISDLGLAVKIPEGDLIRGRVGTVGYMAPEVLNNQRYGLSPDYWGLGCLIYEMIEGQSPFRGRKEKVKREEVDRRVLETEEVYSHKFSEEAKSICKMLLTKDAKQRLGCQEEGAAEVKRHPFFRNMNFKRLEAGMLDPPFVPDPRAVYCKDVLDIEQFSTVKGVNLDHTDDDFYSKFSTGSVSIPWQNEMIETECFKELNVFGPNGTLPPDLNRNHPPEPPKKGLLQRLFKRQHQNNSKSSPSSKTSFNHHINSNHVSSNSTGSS
Protein kinase C eta type (Homo sapiens), sequence (P24723 whole entry): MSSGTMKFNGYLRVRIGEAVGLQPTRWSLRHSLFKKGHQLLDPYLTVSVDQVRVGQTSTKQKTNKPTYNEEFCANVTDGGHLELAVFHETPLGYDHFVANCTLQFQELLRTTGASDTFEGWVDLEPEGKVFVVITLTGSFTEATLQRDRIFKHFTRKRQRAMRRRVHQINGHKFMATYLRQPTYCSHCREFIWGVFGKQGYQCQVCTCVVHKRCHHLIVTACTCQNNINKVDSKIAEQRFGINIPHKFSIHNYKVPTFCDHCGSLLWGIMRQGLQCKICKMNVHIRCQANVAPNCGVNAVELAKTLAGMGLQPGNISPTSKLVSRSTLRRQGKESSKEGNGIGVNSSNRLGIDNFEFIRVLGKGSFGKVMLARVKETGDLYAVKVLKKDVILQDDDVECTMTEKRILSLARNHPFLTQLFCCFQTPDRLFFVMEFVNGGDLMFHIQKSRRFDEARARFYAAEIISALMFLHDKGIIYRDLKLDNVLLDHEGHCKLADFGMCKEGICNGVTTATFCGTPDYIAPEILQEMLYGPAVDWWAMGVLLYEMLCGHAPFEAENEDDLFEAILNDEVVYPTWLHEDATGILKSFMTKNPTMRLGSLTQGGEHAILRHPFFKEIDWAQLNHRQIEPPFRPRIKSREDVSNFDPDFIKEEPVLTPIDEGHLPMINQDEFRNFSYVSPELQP

Turning to `Cc1cc(-c2cnc(N)c3c(-c4ccc5scnc5c4)csc23)n(C)n1`, the residual activity in test [1] came to 96.5%; in test [2], 91.3%; in test [3], 89.1%; in test [4], 73.6%; in test [5], 92.8%; in test [6] it was 80%. In addition, the residual activity in test [7] is 106%.

Take `CC(C)S(=O)(=O)c1ccc2nccc(Nc3ccc4scnc4c3)c2c1`: the residual activity in test [1] was determined as 97.4%; in test [2] it was 88.3%; in test [3], 103%; in test [4], 88%; in test [5], 93.3%; in test [6], 92%. Besides, the residual activity in test [7] was 92.2%.

In the case of `CNC(=O)c1ccc2c(c1)ncn2-c1ccc(CC(=O)OC(C)(C)C)cc1`, the residual activity in test [1] was 94.7%; in test [2], 95.5%; in test [3], 100%; in test [4], 92.5%; in test [5], 87.5%; in test [6], 82.7%. In addition, in test [7], the residual activity is 100%.
